Measurements published in PubChem BioAssay (NCI).
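1) Cells in 96-well plates. 2) Compound, 48 h, 5 concentrations. 3) Linear interpolation between surrounding doses. 4) Unreached endpoint = highest concentration. TGI denotes the concentration required for complete inhibition of growth.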

Columns and labels:
LXFL 529 NSCLC = assay: NCI anticancer screen, dose series, 48 h
M19-MEL melanoma = assay: NCI anticancer screen, dose series, 48 h

Row | SMILES | TGI (LXFL 529 NSCLC) | TGI (M19-MEL melanoma)
1 | COc1ccc(/C=C2\C(=O)Nc3ccccc32)cc1OC | > 100 µM | –
2 | Nc1c2ccccc2nc2nccnc12 | – | > 100 µM
3 | Nc1ccc(N=Nc2ccc(-c3ccc(N=Nc4c(S(=O)(=O)O)cc5cc(S(=O)(=O)O)c(N=Nc6ccc([N+](=O)[O-])cc6)c(N)c5c4O)cc3)cc2)c2cc(S(=O)(=O)O)ccc12 | > 100 µM | > 100 µM
4 | O=C1CCN(CCC(F)(F)C(F)(F)C(F)(F)C(F)(F)F)C(=S)N1 | > 100 µM | > 100 µM
5 | Cc1cc2c(=O)c3ccc(Cl)cc3[nH]c2c(C(=O)O)c1C | > 100 µM | > 100 µM
6 | CNc1cccc(-c2cc(=O)c3cc4c(cc3[nH]2)OCO4)c1 | > 100 µM | > 100 µM
7 | Cc1ccc(NCCO)cc1 | > 100 µM | –
8 | COc1ccc(-c2cc(=O)c3cc4c(cc3[nH]2)OCO4)c(OC)c1 | > 100 µM | > 100 µM
9 | CCOC(=O)C(CC(C)C)NC(=O)C(N)Cc1ccc(N(CCCl)CCCl)cc1 (stereo unspecified) | 8.29 µM | 4.57 µM
10 | N#CC(NNC(=O)Cc1ccccc1)c1ccc(O)cc1 (stereo unspecified) | > 100 µM | > 100 µM
11 | CCC1CN2CCc3cc(OC)c(OC)cc3C2CC1CC1c2cc(OC)c(OC)cc2CCN1C(=O)C(Cc1c[nH]c2ccccc12)NC(=O)OC(C)(C)C (stereo unspecified) | 10.8 µM | 3.11 µM
12 | O=C(CSc1nc(-c2ccccc2)c(-c2ccccc2)[nH]1)N/N=C/c1ccc([N+](=O)[O-])cc1 | 38.3 µM | 30.8 µM
